Structures can show the parent of a compound that is named as a salt.
Biological target: T1, human neutrophil elastase (HNE) (Homo sapiens, UniProt P08246)
T1 construct: purchased Sigma E8140
T1 sequence (P08246 30-247 limits assumed): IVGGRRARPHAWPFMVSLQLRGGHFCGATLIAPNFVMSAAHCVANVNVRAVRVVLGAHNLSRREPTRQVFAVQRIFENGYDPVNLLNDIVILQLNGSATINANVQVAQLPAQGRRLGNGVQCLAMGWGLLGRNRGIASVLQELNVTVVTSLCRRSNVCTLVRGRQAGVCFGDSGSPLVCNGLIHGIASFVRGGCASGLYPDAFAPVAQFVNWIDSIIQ
Experiment: HNE enzyme activity assay
Format: biochemical
Details: human leukocyte elastase, substrate MeOSuc-Ala-Ala-Pro-Val-AMC 100 μM, 25° C. for 30 minutes, fluorescence; read-out: HNE inhibition
Protocol: Compounds of the present invention were tested for potency in a human neutrophil elastase (HNE) enzyme activity assay.
Assays were performed in 96-well plates in a total assay volume of 100 μl. The final concentration of elastase enzyme (human leukocyte elastase, Sigma E8140) was 0.0036 units/well […]. The peptide substrate (MeOSuc-Ala-Ala-Pro-Val-AMC, Calbiochem #324740) was used at a final concentration of 100 μM. The final concentration of DMSO was 1% in the assay buffer (0.05M Tris.HCl, 0.1M NaCl, 0.1M CaCl2, 0.0005% brij-35, pH 7.5). The enzymatic reaction was started by addition of the enzyme and incubated at 25° C. for 30 minutes. After incubation, the reaction was stopped by addition of soybean trypsin inhibitor (Sigma T9003) at a final concentration of 50 μg/well. Fluorescence was measured using a Molecular Devices fluorescence plate reader using 380 nm excitation and 460 nm emission wavelengths.
A dose response to each compound was performed and the effect of compound in each experiment was expressed as a percentage inhibition of the control enzyme fluorescence. Dose response curves were plotted and compound potency (IC50) was determined. Compounds were tested in at least two separate experiments.

| SMILES | IC50 |
| --- | --- |
| CC(=O)N1CCC(NC(=O)Nc2nc3c(-c4cccc(C(F)(F)F)c4)c(C)c(-c4ccnn4-c4ccc(C#N)cc4)cn3n2)CC1 [Example 57, 1-(1-Acetyl-piperidin-4-yl)-3-[6-[2-(4-cyano-phenyl)-2H-pyrazol-3-yl]-7-methyl-8-(3-trifluoromethyl-phenyl)-[1,2,4]triazolo[1,5-a]pyridin-2-yl]-urea] | < 20 nM |
| Cc1c(-c2ccnn2-c2ccc(C#N)cc2)cn2nc(NC(=O)NC3CCN(S(C)(=O)=O)CC3)nc2c1-c1cccc(C(F)(F)F)c1 [Example 58, 1-[6-[2-(4-Cyano-phenyl)-2H-pyrazol-3-yl]-7-methyl-8-(3-trifluoromethyl-phenyl)-[1,2,4]triazolo[1,5-a]pyridin-2-yl]-3-(1-methanesulfonyl-piperidin-4-yl)-urea] | < 20 nM |
| Cc1c(-c2ccnn2-c2ccc(C#N)cc2)cn2nc(NCCCC(=O)N(C)CCN(C)C)nc2c1-c1cccc(C(F)(F)F)c1 [Example 60, 4-[6-[2-(4-Cyano-phenyl)-2H-pyrazol-3-yl]-7-methyl-8-(3-trifluoromethyl-phenyl)-[1,2,4]triazolo[1,5-a]pyridin-2-ylamino]-N-(2-dimethylamino-ethyl)-N-methyl-butyramide formate salt] | < 20 nM |
| Cc1c(-c2nc(N)nn2-c2ccc(C#N)cc2)cn2nc(N)nc2c1-c1cccc(C(F)(F)F)c1 [Example 61, 4-{3-Amino-5-[2-amino-7-methyl-8-(3-trifluoromethyl-phenyl)-[1,2,4]triazolo[1,5-a]pyridin-6-yl]-[1,2,4]triazol-1-yl}-benzonitrile] | < 20 nM |

Other lines, results leading:

| IC50 | SMILES |
| --- | --- |
| < 20 nM | Cc1c(-c2ccnn2-c2ccc(C#N)cc2)cn2nc(NC(=O)NC3CCN(C)CC3)nc2c1-c1cccc(C(F)(F)F)c1 [Example 51, (1-Methyl-4-piperidyl)[6-[2-(4-cyano-phenyl)-2H-pyrazol-3-yl]-7-methyl-8-(3-trifluoromethyl-phenyl)-[1,2,4]triazolo[1,5-a]pyridin-2-yl]-urea] |
| < 20 nM | CCNC(=O)Nc1nc2c(-c3cccc(C(F)(F)F)c3)c(C)c(-c3ccnn3-c3ccc(C#N)cc3)cn2n1 [Example 52, 1-[6-[2-(4-Cyano-phenyl)-2H-pyrazol-3-yl]-7-methyl-8-(3-trifluoromethyl-phenyl)-[1,2,4]triazolo[1,5-a]pyridin-2-yl]-3-ethyl-urea] |
| < 20 nM | Cc1c(-c2ccnn2-c2ccc(C#N)cc2)cn2nc(NCCCO)nc2c1-c1cccc(C(F)(F)F)c1 [Example 53, 4-{5-[2-(3-Hydroxy-propylamino)-7-methyl-8-(3-trifluoromethyl-phenyl)-[1,2,4]triazolo[1,5-a]pyridin-6-yl]-pyrazol-1-yl}-benzonitrile] |
| < 20 nM | Cc1c(-c2ccnn2-c2ccc(C#N)cc2)cn2nc(NCCCCO)nc2c1-c1cccc(C(F)(F)F)c1 [Example 54, 4-{5-[2-(4-Hydroxy-butylamino)-7-methyl-8-(3-trifluoromethyl-phenyl)-[1,2,4]triazolo[1,5-a]pyridin-6-yl]-pyrazol-1-yl}-benzonitrile] |
| < 20 nM | Cc1c(-c2ccnn2-c2ccc(C#N)cc2)cn2nc(NC(=O)CCC(=O)O)nc2c1-c1cccc(C(F)(F)F)c1 [Example 55, N-[6-[2-(4-Cyano-phenyl)-2H-pyrazol-3-yl]-7-methyl-8-(3-trifluoromethyl-phenyl)-[1,2,4]triazolo[1,5-a]pyridin-2-yl]-succinamic acid] |
| < 20 nM | CNCCCC(=O)Nc1nc2c(-c3cccc(C(F)(F)F)c3)c(C)c(-c3ccnn3-c3ccc(C#N)cc3)cn2n1 [Example 56, N-[6-[2-(4-Cyano-phenyl)-2H-pyrazol-3-yl]-7-methyl-8-(3-trifluoromethyl-phenyl)-[1,2,4]triazolo[1,5-a]pyridin-2-yl]-4-methylamino-butyramide] |
